Data: patent EP2265599B1, “CRYSTAL FORM OF PHENYLAMINOPYRIMIDINE DERIVATIVE” (Natco Pharma Limited, priority 2008, dated 2009)
“Also recorded” adds a separate entry of the source.

Columns and labels:
[1] = system: 4910 human glioma xenograft cells; test: Glioma radiation study, intracranially implanted 4910 cells; assay type: in vivo, Nude mice
Description: Nude mice were intracranially implanted with 4910 human glioma xenograft cells (1x10^6 cells). Ten days after implantation mice were treated with AN019, AN024 or temozolomide with or without radiation (5Gy/week). The experiment was terminated at day 40 post implantation.

Baf3E255K = test: In vivo anti-leukemic activity, blast cell count in blood smears, Baf3E255K implanted nude mice; conditions: Imatinib 10mg/kg, AN019 20mg/kg, AN024 20mg/kg, oral gavage or ip from day 15; up to day 42
From the text: (§1) Blood smears were obtained via the tail vein or via the femoral vein every 6th day and blast cells counted and graphically represented.
(§2) Abdominal swelling and decrease in activity was monitored daily, blood smear taken via the tail vein or the femoral vein every 6th day and H&E stained as per standard protocols. 42 days after implantation, mice were sacrificed and spleens harvested.
(§3) Nude mice were intraperitoneally implanted with Baf3 mutant cells (wt, T315I, M351T or E255K). […] Blood was drawn from the femoral vein or tail vein every 6th day and blast cell count determined and graphically represented.

[2] = system: K562 luc human leukemia cells; test: Low dose oral treatment of nude mice implanted with K562 luc cells (luciferase expression); assay type: in vivo; conditions: oral administration
Description: Nude mice (nu/nu) were implanted with K562 cells (1x106) normal/luc via tail vein. Five mice were used per group and divided into 24 groups + 2 control. All groups were implanted with K562 normal/luc cells. Of the 24 groups, 12 were used for luciferase studies whereas the other 12 were used for blood smear count studies.
Drugs were administered by oral gavage (2% gum acacia and 2% SLS in an aqueous suspension).

[3] = system: 4910, 5310 and U87 glioma cells and MDAMB231 and ZR71 breast cancer cells; test: Western blot analysis for pAKT and pERK (cell line not specified); assay type: cell-based; conditions: with and without radiation
Description: Western blot analysis of 4910, 5310 and U87 glioma cells and MDAMB231 and ZR71 breast cancer cells in the presence of specified concentrations of compounds were assessed as per standard protocols. Cells were treated with AN019, AN024 or Temozolomide at the specified concentrations. 24h after treatment, cells were collected and cell lysates extracted. Equal quantities of proteins were fractionated by SDS-PAGE. The fractionated proteins were blotted on to nylon membranes and immunoprobed for AKT, ERK and Pi3k. Breast cancer cell protein isolates were additionally immunoprobed for EGFR, ErbB1, ErbB2 and ErbB3.

Baf3M351T = test: In vivo anti-leukemic activity, blast cell count in blood smears, Baf3M351T implanted nude mice; conditions: Imatinib 10mg/kg, AN019 20mg/kg, AN024 20mg/kg, oral gavage or ip from day 15; up to day 42
From the text: as §1, §2, §3

K562 cells = test: Spleenic enlargement and Crk immunocytochemistry of spleen in nude mice implanted with K562 cells; assay type: in vivo; conditions: ip injections
Description: Spleen and any secondary tumors were harvested, fixed in formaldehyde and paraffin embedded as per standard protocols. Paraffin section were obtained and processed for immunocytochemistry. The rehydrated sections were treated with 0.3% H2O2 to inactivate any native peroxidases prior to immuno-probing. The sections were blocked with filter sterilized (0.22µm) 1% BSA-PBS at room temperature for 1h. Following blocking, the sections were immuno-probed with a human specific anti-Crk monoclonal primary antibody raised in rabbit against a synthetic peptide corresponding to residues in the SH2 domain, near the N-term of human CrkL protein (Abcam, Cambridge, MA, USA) in 1%BSA-PBS overnight. Secondary antibody (anti-rabbit) conjugated to HRP was used to detect the presence of primary antibody. The sections were briefly rinsed three times in PBS solution after immuno-probing with secondary antibody, and DAB HRP substrate was added per manufacture's instructions (Sigma St Louis MO USA). […] For negative controls primary antibody were eliminated. Leukemic mice spleen served as positive controls.
Mice were sacrificed after a decrease in LGI was observed and spleen harvested. […] Control mice also developed random subcutaneous tumors showing Crk expression, indicative of the presence of K562 cells.

MDA-MB-231 = test: Matrigel invasion assay (modified Boyden chamber), MDA-MB-231; assay type: cell-based; conditions: cells treated 48 h
Description: The in vitro invasiveness of 4910, 5310 and U87 glioma cells and MDAMB231 and ZR71 breast cancer cells in the presence of specified concentrations of compounds were assessed using a modified Boyden chamber assay. Cells were treated with these compounds for 48 h. 1x10^6 cells were suspended in 600µl of serum-free medium supplemented with 0.2% BSA and placed in the upper compartment of the transwell chambers (Coming Costar Fischer Scientific Cat #07-200-158, Pittsburgh PA) coated with Matrigel (0.7 mg/ml). The lower compartment of the chamber was filled with 200 µl of serum medium and the cells were allowed to migrate for 24 h. After incubation, the cells were fixed and stained with Hema-3 and quantified as previously described (Mohanam et al. 1993). The migrated cells were imaged microscopically to determine the reduction in invasiveness induced by the compounds of this invention.
The in vitro invasiveness of 4910, 5310 and U87 glioma cells and MDAMB231 and ZR71 breast cancer cells in the presence of specified concentrations of compounds were assessed using a modified Boyden chamber assay. Cells were treated with these compounds for 48 h.

`Cc1ccc(NC(=O)c2cc(C(F)(F)F)cc(C(F)(F)F)c2)cc1Nc1nccc(-c2cccnc2)n1` [AN019, (3,5-bis trifluoromethyl)-N-[4-methyl-3-(4-pyridin-3yl-pyrimidin-2ylamino)-phenyl]-benzamide] was tested, and the “intracranial tumours (size, appearance)” value ([1]; with radiation (5Gy/week)) was “tumor size was significantly reduced”, the “animals cured / no observable intracranial tumor” value ([1]; with radiation (5Gy/week), terminated at day 40) was 6 of 10 animals and the “intracranial tumours (size, appearance)” value ([1]; without radiation) was “showed tumours similar to AN024 treated animals”. The “animals cured / complete absence of intracranial tumours” value ([1]; without radiation, treatment from ten days after implantation, terminated at day 40) was 6 of 10 animals, the “blast cell count in blood smears” value (Baf3E255K) was “significant decrease in blast cell count” and the luciferase expression ([2]; 1mg/kg) was “did not induce a decrease in luciferase expression”. The luciferase expression ([2]; 5mg/kg) was “caused fixation of leukemia cells at constant expression levels”, the luciferase expression ([2]; 10mg/kg) was “caused a decrease in luciferase expression” and the luciferase expression ([2]; 20mg/kg) was “caused a decrease in luciferase expression”. For the same compound, the “levels of pERK” value [3] was “reduced significantly”, the “blast cell count in blood smears” value (Baf3M351T) was “significant decrease in blast cell count” and the “Crk expression in spleen (immunohistochemistry)” value (K562 cells; paraffin sections of spleen) was “basal levels of Crk expression; also recorded: only basal level expression of Crk expression comparable to negative control”. For the same compound, the “Spleenic enlargement (gross observation)” value (K562 cells; spleen harvested after decrease in LGI) was “did not show any spleenic enlargement”, the “+Radiation % Invasion” value (MDA-MB-231; MDA-MB-231, with radiation) was 15% and the “-Radiation % Invasion” value (MDA-MB-231; MDA-MB-231, without radiation) was 45%.
